One may read the Ki as a measure of affinity in units of concentration, obtained from inhibition or displacement.

SMILES strings stand for the structures.

The assay deals with T1, Human Neuropeptide Y2 Receptor (Homo sapiens, UniProt P49146).
T1 construct: purchased CHEMICON HTS066M
T1 sequence (P49146 1-381): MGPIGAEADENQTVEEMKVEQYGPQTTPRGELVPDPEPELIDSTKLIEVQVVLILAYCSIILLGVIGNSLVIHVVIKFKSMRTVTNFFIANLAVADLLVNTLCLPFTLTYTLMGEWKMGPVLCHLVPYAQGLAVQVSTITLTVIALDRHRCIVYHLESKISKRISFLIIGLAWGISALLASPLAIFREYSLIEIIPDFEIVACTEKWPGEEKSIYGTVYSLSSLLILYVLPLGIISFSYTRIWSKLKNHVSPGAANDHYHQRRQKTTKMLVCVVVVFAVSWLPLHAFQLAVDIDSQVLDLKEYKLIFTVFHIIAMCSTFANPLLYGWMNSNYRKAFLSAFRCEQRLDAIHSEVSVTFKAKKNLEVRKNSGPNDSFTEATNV
The assay can be described thus: Radioligand binding competition assay (RLB). To be noted: Table 3; human 125I-PYY (1-36) 0.02 nM, Y2 receptor membranes; read-out: Ki. Summed up: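 IC50 values come from nonlinear regression of sigmoidal dose-response curves of filter-bound radioactivity. Peptides competed with radioligand at human Y2 receptor membranes (0.5 μg protein/well) for 2 h at room temperature in pH 7.4 HEPES buffer containing Mg2+, Ca2+ and 0.2% ovalbumin.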
Take `CC(C)CC(=O)N[C@@H](C)C(=O)N1CCC[C@H]1C(=O)N[C@@H](C)C(=O)N[C@@H](CCCCNC(=O)COCCOCCNC(=O)COCCOCCNC(=O)CC[C@H](NC(=O)CCCCCCCCCCCCCCCCC(=O)O)C(=O)O)C(=O)N1CCC[C@H]1C(=O)N[C@@H](CCC(=O)O)C(=O)N[C@@H](C)C(=O)N[C@@H](CC(=O)O)C(=O)N[C@@H](C)C(=O)N[C@@H](CO)C(=O)N1CCC[C@H]1C(=O)N[C@@H](CCC(=O)O)C(=O)N[C@@H](CCC(=O)O)C(=O)N[C@@H](CC(C)C)C(=O)N[C@@H](CCC(N)=O)C(=O)N[C@@H](CCCNC(=N)N)C(=O)N[C@@H](Cc1ccc(O)cc1)C(=O)N[C@@H](Cc1ccc(O)cc1)C(=O)N[C@H](C(=O)N[C@@H](CO)C(=O)N[C@@H](CC(C)C)C(=O)N[C@@H](CCCNC(=N)N)C(=O)N[C@@H](Cc1c[nH]cn1)C(=O)N[C@@H](Cc1ccc(O)cc1)C(=O)N[C@@H](Cc1ccc(O)cc1)C(=O)N[C@@H](CC(N)=O)C(=O)N[C@@H](Cc1c[nH]c2ccccc12)C(=O)N[C@@H](CC(C)C)C(=O)N[C@H](C(=O)N[C@@H](CCCNC(=N)N)C(=O)N[C@@H](CCC(N)=O)C(=O)N[C@@H](CCCNC(=N)N)C(=O)N[C@@H](Cc1ccc(O)cc1)C(N)=O)[C@@H](C)O)C(C)C` [Compound 121, N{alpha-4}-(3-methylbutanoyl)-N{epsilon-7}-[2-(2-{2-[2-(2-{2-[(4S)-4-carboxy-4-(17-carboxyheptadecanamido)butanamido]ethoxy}ethoxy)acetamido]ethoxy}ethoxy)acetamido]-[4A,6A,7K,9E,10A,18Q,22V,28Y,30W,31L]hPYY (4-36)]: the inhibitory constant (Ki) amounted to 0.61 nM. With `CC(C)CC(=O)N[C@@H](C)C(=O)N1CCC[C@H]1C(=O)N[C@@H](CCC(=O)O)C(=O)N[C@@H](CCCCNC(=O)COCCOCCNC(=O)COCCOCCNC(=O)CC[C@H](NC(=O)CCCCCCCCCCCCCCCCC(=O)O)C(=O)O)C(=O)N1CCC[C@H]1C(=O)N[C@@H](CCC(=O)O)C(=O)N[C@@H](CCC(=O)O)C(=O)N[C@@H](CC(=O)O)C(=O)N[C@@H](C)C(=O)N[C@@H](CCC(=O)O)C(=O)N1CCC[C@H]1C(=O)N[C@@H](CCC(=O)O)C(=O)N[C@@H](CCC(=O)O)C(=O)N[C@@H](CC(C)C)C(=O)N[C@@H](CCC(N)=O)C(=O)N[C@@H](CCCNC(=N)N)C(=O)N[C@@H](Cc1ccc(O)cc1)C(=O)N[C@@H](Cc1ccc(O)cc1)C(=O)N[C@H](C(=O)N[C@@H](CCC(=O)O)C(=O)N[C@@H](CC(C)C)C(=O)N[C@@H](CCCNC(=N)N)C(=O)N[C@@H](Cc1c[nH]cn1)C(=O)N[C@@H](Cc1ccc(O)cc1)C(=O)N[C@@H](Cc1ccc(O)cc1)C(=O)N[C@@H](CC(N)=O)C(=O)N[C@@H](Cc1c[nH]c2ccccc12)C(=O)N[C@@H](CC(C)C)C(=O)N[C@H](C(=O)N[C@@H](CCCNC(=N)N)C(=O)N[C@@H](CCC(N)=O)C(=O)N[C@@H](CCCNC(=N)N)C(=O)N[C@@H](Cc1ccc(O)cc1)C(N)=O)[C@@H](C)O)C(C)C` [Compound 111, N{alpha-4}-(3-methylbutanoyl)-N{epsilon-7}-[2-(2-{2-[2-(2-{2-[(4S)-4-carboxy-4-(17-carboxyheptadecanamido)butanamido]ethoxy}ethoxy)acetamido]ethoxy}ethoxy)acetamido]-[4A,7K,9E,13E,18Q,22V,23E,28Y,30W,31L]hPYY (4-36)], the Ki came to 5.43 nM. For `CC(C)CC(=O)N[C@@H](C)C(=O)N1CCC[C@H]1C(=O)N[C@@H](CCC(=O)O)C(=O)N[C@@H](CCCCNC(=O)COCCOCCNC(=O)COCCOCCNC(=O)CC[C@H](NC(=O)CCCCCCCCCCCCCCCCC(=O)O)C(=O)O)C(=O)N[C@@H](C)C(=O)N[C@@H](CCC(=O)O)C(=O)N[C@@H](CCC(=O)O)C(=O)N[C@@H](CC(=O)O)C(=O)N[C@@H](C)C(=O)N[C@@H](CO)C(=O)N[C@@H](CCC(=O)O)C(=O)N[C@@H](CCC(=O)O)C(=O)N[C@@H](CCC(=O)O)C(=O)N[C@@H](CC(C)C)C(=O)N[C@@H](CCC(N)=O)C(=O)N[C@@H](CCCNC(=N)N)C(=O)N[C@@H](Cc1ccc(O)cc1)C(=O)N[C@@H](Cc1ccc(O)cc1)C(=O)N[C@H](C(=O)N[C@@H](CO)C(=O)N[C@@H](CC(C)C)C(=O)N[C@@H](CCCNC(=N)N)C(=O)N[C@@H](Cc1c[nH]cn1)C(=O)N[C@@H](Cc1ccc(O)cc1)C(=O)N[C@@H](Cc1ccc(O)cc1)C(=O)N[C@@H](CC(N)=O)C(=O)N[C@@H](Cc1c[nH]c2ccccc12)C(=O)N[C@@H](CC(C)C)C(=O)N[C@H](C(=O)N[C@@H](CCCNC(=N)N)C(=O)N[C@@H](CCC(N)=O)C(=O)N[C@@H](CCCNC(=N)N)C(=O)N[C@@H](Cc1ccc(O)cc1)C(N)=O)[C@@H](C)O)C(C)C` [Compound 52, N{alpha-4}-(3-methylbutanoyl)-N{epsilon-7}-[2-(2-{2-[2-(2-{2-[(4S)-4-carboxy-4-(17-carboxyheptadecanamido)butanamido]ethoxy}ethoxy)acetamido]ethoxy}ethoxy)acetamido]-[4A,7K,8A,9E,14E,18Q,22V,28Y,30W,31L]hPYY (4-36)], the Ki was determined as 8.53 nM. For the molecule `CC(C)CC(=O)N[C@@H](C)C(=O)N1CCC[C@H]1C(=O)N[C@@H](CCC(=O)O)C(=O)N[C@@H](CCCCNC(=O)COCCOCCNC(=O)COCCOCCNC(=O)CC[C@H](NC(=O)CCCCCCCCCCCCCCCCC(=O)O)C(=O)O)C(=O)N1CCC[C@H]1C(=O)N1CCC[C@H]1C(=O)N[C@@H](C)C(=O)N[C@@H](CC(=O)O)C(=O)N[C@@H](C)C(=O)N[C@@H](CO)C(=O)N1CCC[C@H]1C(=O)N[C@@H](CCC(=O)O)C(=O)N[C@@H](CCC(=O)O)C(=O)N[C@@H](CC(C)C)C(=O)N[C@@H](CCC(N)=O)C(=O)N[C@@H](CCCNC(=N)N)C(=O)N[C@@H](Cc1ccc(O)cc1)C(=O)N[C@@H](Cc1ccc(O)cc1)C(=O)N[C@H](C(=O)N[C@@H](CO)C(=O)N[C@@H](CC(C)C)C(=O)N[C@@H](CCCNC(=N)N)C(=O)N[C@@H](Cc1c[nH]cn1)C(=O)N[C@@H](Cc1ccc(O)cc1)C(=O)N[C@@H](Cc1ccc(O)cc1)C(=O)N[C@@H](CC(N)=O)C(=O)N[C@@H](Cc1c[nH]c2ccccc12)C(=O)N[C@@H](CC(C)C)C(=O)N[C@H](C(=O)N[C@@H](CCCNC(=N)N)C(=O)N[C@@H](CCC(N)=O)C(=O)N[C@@H](CCCNC(=N)N)C(=O)N[C@@H](Cc1ccc(O)cc1)C(N)=O)[C@@H](C)O)C(C)C` [Compound 47, N{alpha-4}-(3-methylbutanoyl)-N{epsilon-7}-[2-(2-{2-[2-(2-{2-[(4S)-4-carboxy-4-(17-carboxyheptadecanamido)butanamido]ethoxy}ethoxy)acetamido]ethoxy}ethoxy)acetamido]-[4A,7K,9P,10A,18Q,22V,28Y,30W,31L]hPYY (4-36)], the Ki stood at 0.42 nM.

Turning to `CC(C)CC(=O)N[C@@H](C)C(=O)N1CCC[C@H]1C(=O)N[C@@H](CCC(=O)O)C(=O)N[C@@H](CCCCNC(=O)COCCOCCNC(=O)COCCOCCNC(=O)CC[C@H](NC(=O)CCCCCCCCCCCCCCCCC(=O)O)C(=O)O)C(=O)N1CCC[C@H]1C(=O)N[C@@H](CCC(=O)O)C(=O)N[C@@H](CCC(=O)O)C(=O)N[C@@H](CC(=O)O)C(=O)N[C@@H](C)C(=O)N[C@@H](CO)C(=O)N1CCC[C@H]1C(=O)N[C@@H](C)C(=O)N[C@@H](CCC(=O)O)C(=O)N[C@@H](CC(C)C)C(=O)N[C@@H](CCC(N)=O)C(=O)N[C@@H](CCCNC(=N)N)C(=O)N[C@@H](Cc1ccc(O)cc1)C(=O)N[C@@H](Cc1ccc(O)cc1)C(=O)N[C@H](C(=O)N[C@@H](CO)C(=O)N[C@@H](CC(C)C)C(=O)N[C@@H](CCCNC(=N)N)C(=O)N[C@@H](Cc1c[nH]cn1)C(=O)N[C@@H](Cc1ccc(O)cc1)C(=O)N[C@@H](Cc1ccc(O)cc1)C(=O)N[C@@H](CC(N)=O)C(=O)N[C@@H](Cc1c[nH]c2ccccc12)C(=O)N[C@@H](CC(C)C)C(=O)N[C@H](C(=O)N[C@@H](CCCNC(=N)N)C(=O)N[C@@H](CCC(N)=O)C(=O)N[C@@H](CCCNC(=N)N)C(=O)N[C@@H](Cc1ccc(O)cc1)C(N)=O)[C@@H](C)O)C(C)C` [Compound 17, N{alpha-4}-(3-methylbutanoyl)-N{epsilon-7}-[2-(2-{2-[2-(2-{2-[(4S)-4-carboxy-4-(17-carboxyheptadecanamido)butanamido]ethoxy}ethoxy)acetamido]ethoxy}ethoxy)acetamido]-[4A,7K,9E,15A,18Q,22V,28Y,30W,31L]hPYY (4-36)], the Ki was found to be 0.93 nM.

These data come from patent US12559529B2, “NPY2 receptor agonists” (Boehringer Ingelheim International GmbH, priority 2019, dated 2026).
